Results published in patent US20030114393A1 (priority 1999, published 2003).
Like-named read-outs stand apart in the source and are kept apart here.

Assays:
MCF-7-AdrR cells [1] = experiment: cells; conditions: for reduction of cell viability by adriamycin in the presence of the steroidal alkaloid: 10 μM alkaloid fixed, increasing adriamycin up to 10 μM, compared with drug-free incubations; for EC50: Homo sapiens, read-out: EC50 of sensitization of the cells to adriamycin; for reduction of cell survival by the steroidal alkaloid alone: alkaloid alone (10 μM), MCF-7-AdrR, MTT
Experimental: Cells were plated in 96-well plates at a density of 4×10^3 cells/well in 0.1 ml drug-free DMEM containing 5% fetal calf serum, and incubated at 37° C. for 48 h. After this time, cytotoxic drugs (adriamycin or vinblastine) were added to the wells at the indicated concentrations, in the absence or presence of the tested steroidal alkaloids, and the cells were further incubated for an additional 48-72 h. The cytotoxic activity of the drugs was then determined using a standard MTT cell survival assay (Hansen, M. B. et al., J. Immunol. Meth 119: 203-210. The […] reagent (diluted from a 5 mg/ml solution in PBS) was added to all the wells at a final concentration of 0.6 mg/ml and the cells were further incubated at 37° C. for 2 or 3 h. The reaction was terminated by adding 100 μl/well of an extraction solution consisting of 20% (w/v) sodium dodecyl sulfate (SDS) in 50% aqueous dimethyl formamide solution, pH 4.8. The plates were left overnight at room temperature in the dark, following which the absorbance was read at 570-nm using an ELISA plate reader. […] Data points represent the mean±S.D. of a quadruplicate determination from a representative experiment that was repeated at least twice. The results are expressed as a percentage of control, drug-free wells.
The cytotoxic effect of the drugs was evaluated by utilizing the MTT cell viability assay, a standard assay for assessing drug resistance and its reversal. Routinely, MCF-7-AdrR cells were exposed to increasing concentrations of drugs for 48 h and the number of viable cells was quantitated after adding the MTT reagent.

MCF-7-AdrR cells [2] = experiment: TMR (tetramethylrosamine chloride) accumulation, in vitro drug uptake model; assay type: cell-based, human; conditions: for EC50: Homo sapiens, 0.5 h, read-out: concentration half maximally effective on TMR accumulation; for maximal stimulation of TMR accumulation / effect on TMR accumulation: MCF-7-AdrR cells; for maximal stimulation of TMR accumulation: 10 μM TMR, 30 minutes at 37° C., relative to TMR alone; for effect on TMR accumulation: FIG. 1A/1B
Experimental: The effect of steroidal alkaloids on drug transport was examined by measuring cellular accumulation of TMR, a fluorescent model drug, according to Eytan et al. (Eytan, G. D. et al., Eur. J. Biochem. 248: 104-112, 1997) with some modifications. Cells were seeded in 24-well tissue culture plates at a density of 0.5×10^5 cells/well and were grown for 24 h in growth medium supplemented with 0.5% FCS. TMR (diluted from a 10 mM stock in DMSO) was added to the cells at a final concentration of 10 μM, in 0.5 ml of growth medium in the presence or absence of the tested alkaloids (given prior to the dye as indicated). Cells were incubated with TMR and the tested drug for 30 minutes at 37° C. To terminate the assay, the plates were placed on ice and the cells were washed three times with ice-cold phosphate-buffered saline (PBS) in order to remove residual TMR. The cells were then lysed by incubation with 0.5 ml of 0.5 N NaOH for 20 minutes at room temperature, and the lysates were neutralized with 0.5 ml of 0.5 N HCl and collected. Cell-associated TMR was determined by measuring the fluorescence intensity of the lysates using a fluorescence spectrophotometer (excitation at 555-nm, emission at 575-nm). Blank values obtained at zero time were subtracted from all the fluorescence values and the results were normalized to the amount of cellular protein in each well. Experiments were carried out in triplicates and were repeated at least twice. Results are expressed as a percentage of incubations with TMR alone.
Expression of multidrug transporters markedly decreases drug accumulation in MDR cells. Conversely, in such cells drug accumulation is increased by inhibition of P-gp and related proteins with MDR reversal agents. TMR accumulation was utilized to examine the effect of steroidal alkaloids on P.gp in MCF-7-AdrR adriamycin-resistant human breast adenocarcinoma cells.

[3] = literature (Keeler, 1978; Gaffield and Keeler, 1996); cited from earlier work
[4] = 10 μM tested compound, increasing vinblastine, 48 h, FIG. 5

Compound: C[C@@H]1CN[C@H]2[C@@H](C)[C@@]3(CC[C@H]4[C@@H]5CC[C@H]6C[C@@H](O)CC[C@]6(C)[C@H]5C(=O)[C@@H]4[C@H]3C)O[C@@H]2C1 [tetrahydrojervine]
- sensitization to vinblastine: shift of concentration-response curve to the left (MCF-7-AdrR cells [1]; [4]): most effective

Compound: CC1=C2C[C@H]3[C@@H](CC=C4C[C@@H](O)CC[C@@]43C)[C@@H]2CC[C@]12O[C@@H]1C[C@H](C)CN[C@H]1[C@H]2C [cyclopamine]
- EC50 (MCF-7-AdrR cells [2]): ~1 µM
- maximal stimulation of TMR accumulation (MCF-7-AdrR cells [2]): 2 fold
- effect on TMR accumulation (MCF-7-AdrR cells [2]): concentration-dependent increase
- reduction of cell viability by adriamycin in the presence of the steroidal alkaloid (MCF-7-AdrR cells [1]; 48 h): ~90%
- EC50 (MCF-7-AdrR cells [1]; 48 h): 2.5 µM
- reduction of cell survival by the steroidal alkaloid alone (MCF-7-AdrR cells [1]; 48 h): 10-20%
- teratogenic activity [3]: potent teratogen

Compound: COc1ccc(CCN(C)CCCC(C#N)(c2ccc(OC)c(OC)c2)C(C)C)cc1OC (stereo not drawn) [verapamil, reference compound]
- effect on TMR accumulation (MCF-7-AdrR cells [2]): back to near normal levels
- effect on drug (adriamycin) sensitivity of MCF-7-AdrR cells (MCF-7-AdrR cells [1]; preliminary experiments, data not shown): markedly increase their drug sensitivity

Compound: CC1=C2C(=O)[C@H]3[C@@H](CC=C4C[C@@H](O)CC[C@@]43C)[C@@H]2CC[C@]12O[C@@H]1C[C@H](C)CN[C@H]1[C@H]2C [jervine]
- sensitization to vinblastine: shift of concentration-response curve to the left (MCF-7-AdrR cells [1]; [4]): most effective

Compound: C[C@H]1CC[C@]2(NC1)O[C@H]1C[C@H]3[C@@H]4CC[C@H]5C[C@@H](O)CC[C@]5(C)[C@H]4CC[C@]3(C)[C@H]1[C@@H]2C [tomatidine]
- EC50 (MCF-7-AdrR cells [2]): ~1 µM
- maximal stimulation of TMR accumulation (MCF-7-AdrR cells [2]): 2.5 fold
- effect on TMR accumulation (MCF-7-AdrR cells [2]): concentration-dependent increase
- reduction of cell viability by adriamycin in the presence of the steroidal alkaloid (MCF-7-AdrR cells [1]; 48 h): more than 90%
- EC50 (MCF-7-AdrR cells [1]; 48 h): 5 µM
- reduction of cell survival by the steroidal alkaloid alone (MCF-7-AdrR cells [1]; 48 h): modest cytotoxic activity of its own
- reduction of cell survival by the steroidal alkaloid alone (MCF-7-AdrR cells [1]; 48 h, listed as Tomatidine): 20-25%
- teratogenic activity [3]: no teratogenic activity

Compound: Cc1c([C@H](C)[C@@H]2NC[C@@H](C)C[C@H]2O)ccc2c1C[C@H]1[C@H]2CC=C2C[C@@H](O)CC[C@@]21C [veratramine]
- sensitization to vinblastine (MCF-7-AdrR cells [1]; 1 μM veratramine, increasing vinblastine, 48 h, FIG. 5): sensitize

Compound: cyclopamine-4en-3-one [cylopamine4-en-3-one]
- sensitization to vinblastine: shift of concentration-response curve to the left (MCF-7-AdrR cells [1]): most effective
